{"source": "patent US9549977B2", "about": "(priority 2011, dated 2017)", "key": {"IL 1β [1]": {"tested_on": "IL 1β", "assay": "IL 1β transcription in peripheral blood leukocytes, real time PCR", "assay_type": "cell-based, rainbow trout (Oncorhynchus mykiss)", "description": "(§1) FIG. 4. Expression analysis by real time PCR of the in vitro effect of PACAP38 over the transcription of IL 1β in peripheral blood leukocytes (A) and head kidney (B) of naïve rainbow trout. The effects of PACAP administration at a concentration of 10^−10 M, 10^−9 M and 10^−8 M was evaluated at 48 h post-treatment. The experiment was repeated 4 times. The leukocyte cultures were treated in duplicates and the PCRs were performed in triplicate. Data are expressed as mean of relative expression of IL 1β related to the endogenous elongation factor EF1α±standard deviation (SD).\n(§2) We used juvenile rainbow trout (O. mykiss) of approximately 50 g, free of the VHSV and IPNV. Fish (n=5) were anesthetized with methanesulfonic acid salt (Sigma, USA) and peripheral blood from the tail vein was taken aseptically of each fish and then the head kidney was collected. […]\n(§3) The levels of IL 1β and IL 15 were evaluated 48 hours after treatment. […]\n(§4) For cDNA synthesis was used a commercial kit that use the SuperScript III reverse transcriptase (Invitrogen). Finally, for quantitative PCRs (qPCRs) was used a commercial mixture of PCR: Power SYBR Green PCR Master Mix (Applied Biosystems). […] The results were expressed as 2^−ΔCt, where ΔCt is equal to the remainder of the Ct value of the target gene minus the Ct value of the normalized gene EF 1α."}, "IL 1β [2]": {"tested_on": "IL 1β", "assay": "IL 1β transcription in head kidney leukocytes, real time PCR", "assay_type": "cell-based, rainbow trout (Oncorhynchus mykiss)", "conditions": "10^−10, 10^−9, 10^−8 M tested, 48 h", "description": "as §1, §2, §3, §4"}, "IL 15 [3]": {"tested_on": "IL 15", "assay": "IL 15 expression in peripheral blood leukocytes, real time PCR", "assay_type": "cell-based, rainbow trout (Oncorhynchus mykiss)", "description": "(§5) FIG. 5. Expression analysis by real time PCR of the in vitro effect of PACAP38 over the transcription of IL 15 in peripheral blood leukocytes (A) and head kidney (B) of neïve rainbow trout. The effects of PACAP administration at a concentration of 10^−10 M, 10^−9 M and 10^−8 M was evaluated at 48 h post-treatment. The experiment was repeated 4 times. The leukocyte cultures were treated in duplicates and the PCRs were performed in triplicates. Data are expressed as the mean of the relative expression of IL 15 related to the endogenous elongation factor EF1α±standard deviation (SD). (*) p<0.05.\nas §2, §3, §4"}, "IL 15 [4]": {"tested_on": "IL 15", "assay": "IL 15 expression in head kidney leukocytes, real time PCR", "assay_type": "cell-based, rainbow trout (Oncorhynchus mykiss)", "conditions": "10^−9 M, 48 h, vs negative control", "description": "as §5, §2, §3, §4"}, "[5]": {"tested_on": "Ichthyophthirius multifiliis", "assay": "Survival of channel catfish immunized and challenged with live theronts of I. multifiliis", "assay_type": "in vivo, channel catfish (Ictalurus punctatus)", "conditions": "PACAP immersion baths 100 μg/L, 6 baths of 1 hour, versus immunized fish", "description": "An experiment was conducted to evaluate the effect of PACAP administration, after immunization with ciliated parasite theronts I. multifiliis, on survival of channel catfish (I. punctatus). The vaccination and challenge procedure was performed as proposed by Wang and Dickerson ((2002) Clinical and Diagnostic Laboratory Immunology 9 (1), 176-181). Four experimental groups of 25 fish (12±5 g) each one were established:\nGroup 1: Fish immunized on days 1 and 35 with PBS.\nGroup 2: Fish immunized on day 1 with 8000 live theronts I. multifiliis and at day 35 with 10,000 living theronts parasite.\nGroup 3: Fish immunized on day 1 with 8000 live theronts I. multifiliis and at day 35 with 10,000 living theronts parasite. These fish also received by immersion baths the neuropeptide PACAP at a dose of 100 μg of PACAP/L of water. The treatment was performed for 1 hour, on alternate days, in the two weeks prior to challenge (six immersion baths).\nGroup 4: Fish immunized on day 1 with 8000 live theronts I. multifiliis and at day 35 with 10,000 living theronts parasite. These fish were also subjected to immersion baths for 1 hour without PACA, by a procedure similar to Group 3.\nPrior to the immunizations fish were treated with formalin to remove existing ectoparasites. The fish were maintained at 23±2° C. and continuous water flow. At day 84, the fish were challenged with 15 000 theronts. […]"}, "Caligus rogercresseyi": {"tested_on": "Caligus rogercresseyi", "assay": "Controlled challenge test with Caligus rogercresseyi in immunized Salmo salar", "protocol": "In this experiment were established six experimental groups of 25 animals (average weight 80 g) each one:\nGroup 1: Injected IP with PBS\nGroup 2: Injected IP with PACAP38 at the dose of 1 μg/fish\nGroup 3: Injected IP with my32 at the dose of 3 μg/g of body weight (gbw)\nGroup 4: Co-administration by IP injection of my32 at 3 μg/gbw and PACAP at the dose of 1 μg/fish\nGroup 5: Fish injected IP with my32 at the dose of 3 μg/gbw and fed with 250 μg of PACAP/Kg of feed daily, for one week before and after de immunization with my32.\nAfter 500 arbitrary thermal units, fish were adapted to seawater for two weeks. Subsequently, they were challenged with 2000±200 copepodites to each tank. […] Turnover and filtration was performed manually every 48 hours. At 24 days, fish were anesthetized and killed for parasite counting under a stereomicroscope."}}, "note": "Marks after values point to notes of the source that are not given here.", "data": [{"substance": "PACAP38", "values": [{"measurement": "transcription of IL 1β (relative expression to EF1α)", "setting": "IL 1β [1]; 10^−9 M, 48 h, vs negative control, below the 10^−10 M level", "value": "stimulatory effect"}, {"measurement": "IL 1β levels (relative expression to EF1α)", "setting": "IL 1β [1]; 10^−10 M, 48 hours", "value": "increased"}, {"measurement": "IL1β transcription (relative expression to EF1α)", "setting": "IL 1β [2]", "value": "stimulatory effect only at a dose of 10^−9 M"}, {"measurement": "expression of the IL 15 (relative to EF1α)", "setting": "IL 15 [3]; 10^−9 M, 48 h", "value": "stimulatory effect"}, {"measurement": "expression of the IL 15 (relative to EF1α)", "setting": "IL 15 [3]; 10^−10 M, 48 h (highest values)", "value": "stimulatory effect"}, {"measurement": "IL 15 expression levels (relative to EF1α)", "setting": "IL 15 [4]", "value": "statistically higher than the negative control group"}, {"measurement": "increase in survival of immunized fish simultaneously treated with PACAP", "setting": "[5]", "value": 27, "unit": "%"}, {"measurement": "Inhibition of the infestation (%)", "setting": "Caligus rogercresseyi; 24 days post-challenge, (1 − T/C) × 100 versus placebo group", "value": 22, "unit": "%"}, {"measurement": "Number of parasites/fish", "setting": "Caligus rogercresseyi; S. salar, 24 days post-challenge with C. rogercresseyi, PACAP 1 μg/fish IP or 250 μg/Kg feed, my32 3 μg/gbw IP", "value": "29 ± 5^b"}]}]}
